Results on six compounds are retold here after ChEMBL document CHEMBL4732135, “Structural and mechanistic insights into the inhibition of amyloid-β aggregation by Aβ fragment derived synthetic peptides” (Eur J Med Chem, 2021).

Peptide text beside a SMILES is read from it.

Usually inhibition stands for the relative decrease from the control value, in per cent.

One assay deals with Amyloid-beta precursor protein (Homo sapiens) (UniProt P05067). The assay can be described thus: Inhibition of amyloid beta (1 to 42) (unknown origin) assessed as reduction in peptide aggregation at 4 uM measured after 24 hrs by thioflavin-T fluorescence assay relative to control.
Chain of Amyloid-beta precursor protein (Homo sapiens) (P05067 whole entry): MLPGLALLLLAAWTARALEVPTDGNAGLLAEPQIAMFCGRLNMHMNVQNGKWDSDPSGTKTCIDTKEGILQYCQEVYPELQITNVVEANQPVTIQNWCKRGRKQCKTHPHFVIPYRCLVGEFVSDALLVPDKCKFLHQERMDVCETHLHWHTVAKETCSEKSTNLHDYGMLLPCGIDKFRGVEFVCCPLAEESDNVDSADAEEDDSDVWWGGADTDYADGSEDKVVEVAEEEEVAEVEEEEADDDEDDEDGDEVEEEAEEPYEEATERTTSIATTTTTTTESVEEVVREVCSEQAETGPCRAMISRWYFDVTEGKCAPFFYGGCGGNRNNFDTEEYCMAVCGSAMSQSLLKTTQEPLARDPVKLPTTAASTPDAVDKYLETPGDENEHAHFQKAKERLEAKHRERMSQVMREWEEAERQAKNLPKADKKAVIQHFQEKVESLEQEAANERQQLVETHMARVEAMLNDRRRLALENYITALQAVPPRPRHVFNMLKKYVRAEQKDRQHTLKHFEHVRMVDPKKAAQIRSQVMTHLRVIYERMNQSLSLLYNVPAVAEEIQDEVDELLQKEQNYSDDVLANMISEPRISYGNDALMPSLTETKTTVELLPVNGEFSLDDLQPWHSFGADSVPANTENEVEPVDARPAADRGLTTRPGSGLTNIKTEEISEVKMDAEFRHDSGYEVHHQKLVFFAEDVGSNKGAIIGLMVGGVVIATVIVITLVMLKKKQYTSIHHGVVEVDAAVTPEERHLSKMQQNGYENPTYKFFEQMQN
Conditions: not given
For `CC(C)[C@H](N)C(=O)N[C@H](C(=O)NC[C@@H]1CCCN1[C@@H](C)C(=O)O)C(C)C`, the inhibition is 0%.

For the compound `CC[C@H](C)[C@H](NC(=O)[C@@H](NC(=O)C[C@H](N)c1ccccc1)C(C)C)C(=O)N[C@@H](C)C(=O)O`, the inhibition was determined as 58.2%.

`CC[C@H](C)[C@H](NC(=O)CNC(=O)CN)C(=O)N[C@@H](C)C(=O)O` (H-GGIA-OH): the inhibition is 95.2%.

For the compound `CC[C@H](C)[C@H](NC(=O)[C@@H](NC(=O)[C@@H](N)C(C)C)C(C)C)C(=O)N[C@@H](CCC(=O)O)C(=O)O` (H-VVIE-OH), the inhibition was determined as 39.3%.

For `CC[C@H](C)[C@H](NC(=O)[C@@H](NC(=O)[C@@H](N)C(C)C)C(C)C)C(=O)N[C@@H](CC(N)=O)C(=O)O` (H-VVIN-OH), the inhibition was found to be 59.9%.

For `CC[C@H](C)[C@H](NC(=O)[C@@H](NC(=O)[C@@H](N)C(C)C)C(C)C)C(=O)N[C@@H](CCC(N)=O)C(=O)O` (H-VVIQ-OH), the inhibition was 26.5%.

The target is the same in another assay. Put plainly: Inhibition of amyloid beta (1 to 42) (unknown origin) assessed as reduction in peptide aggregation at 2 uM measured after 24 hrs by thioflavin-T fluorescence assay relative to control.
Conditions: not given
For `CC(C)[C@H](N)C(=O)N[C@H](C(=O)NC[C@@H]1CCCN1[C@@H](C)C(=O)O)C(C)C`, the inhibition amounted to 0%.

Consider `CC[C@H](C)[C@H](NC(=O)[C@@H](NC(=O)C[C@H](N)c1ccccc1)C(C)C)C(=O)N[C@@H](C)C(=O)O`, for which the inhibition was found to be 50.1%.

Regarding `CC[C@H](C)[C@H](NC(=O)CNC(=O)CN)C(=O)N[C@@H](C)C(=O)O` (H-GGIA-OH), the inhibition was determined as 93.6%.

In the case of `CC[C@H](C)[C@H](NC(=O)[C@@H](NC(=O)[C@@H](N)C(C)C)C(C)C)C(=O)N[C@@H](CCC(=O)O)C(=O)O` (H-VVIE-OH), the inhibition was found to be 38.8%.

Consider `CC[C@H](C)[C@H](NC(=O)[C@@H](NC(=O)[C@@H](N)C(C)C)C(C)C)C(=O)N[C@@H](CC(N)=O)C(=O)O` (H-VVIN-OH), for which the inhibition amounted to 38.6%.

`CC[C@H](C)[C@H](NC(=O)[C@@H](NC(=O)[C@@H](N)C(C)C)C(C)C)C(=O)N[C@@H](CCC(N)=O)C(=O)O` (H-VVIQ-OH): the inhibition was determined as 24.2%.

The next assay has as its system PC-12. The assay can be described thus: Neuroprotective activity against amyloid beta 42-induced toxicity in rat PC-12 cells assessed as cell viability at 4 uM measured after 6 hrs by MTT assay (reference value: 74.05%). The assay is classed as functional. The settings on record: read-out: Activity. (Tetrazolium assays rely on reduction of a dye to a coloured formazan, in cell work by metabolically active cells.)
`CC(C)[C@H](N)C(=O)N[C@H](C(=O)NC[C@@H]1CCCN1[C@@H](C)C(=O)O)C(C)C`: the viability at 4 µM worked out at 64.7%.

On to `CC[C@H](C)[C@H](NC(=O)[C@@H](NC(=O)C[C@H](N)c1ccccc1)C(C)C)C(=O)N[C@@H](C)C(=O)O`, for which the viability at 4 µM turned out to be 66.3%.

As to `CC[C@H](C)[C@H](NC(=O)CNC(=O)CN)C(=O)N[C@@H](C)C(=O)O` (H-GGIA-OH), the viability at 4 µM worked out at 72.8%.

As to `CC[C@H](C)[C@H](NC(=O)[C@@H](NC(=O)[C@@H](N)C(C)C)C(C)C)C(=O)N[C@@H](CCC(=O)O)C(=O)O` (H-VVIE-OH), the viability at 4 µM was found to be 76.3%.

For `CC[C@H](C)[C@H](NC(=O)[C@@H](NC(=O)[C@@H](N)C(C)C)C(C)C)C(=O)N[C@@H](CC(N)=O)C(=O)O` (H-VVIN-OH), the viability at 4 µM amounted to 67.4%.

For the compound `CC[C@H](C)[C@H](NC(=O)[C@@H](NC(=O)[C@@H](N)C(C)C)C(C)C)C(=O)N[C@@H](CCC(N)=O)C(=O)O` (H-VVIQ-OH), the viability at 4 µM worked out at 75.2%.

In another assay the target is Amyloid-beta precursor protein (Homo sapiens) (UniProt P05067). The assay can be described thus: Inhibition of amyloid beta (1 to 42) (unknown origin) assessed as reduction in peptide aggregation at 10 uM measured after 24 hrs by thioflavin-T fluorescence assay relative to control.
Conditions: not given
As for `CC(C)[C@H](N)C(=O)N[C@H](C(=O)NC[C@@H]1CCCN1[C@@H](C)C(=O)O)C(C)C`, the inhibition stood at 11.9%.

Turning to `CC[C@H](C)[C@H](NC(=O)[C@@H](NC(=O)C[C@H](N)c1ccccc1)C(C)C)C(=O)N[C@@H](C)C(=O)O`, the inhibition amounted to 67.3%.

Regarding `CC[C@H](C)[C@H](NC(=O)CNC(=O)CN)C(=O)N[C@@H](C)C(=O)O` (H-GGIA-OH), the inhibition was 98.3%.

With `CC[C@H](C)[C@H](NC(=O)[C@@H](NC(=O)[C@@H](N)C(C)C)C(C)C)C(=O)N[C@@H](CCC(=O)O)C(=O)O` (H-VVIE-OH), the inhibition was 65.1%.

For the compound `CC[C@H](C)[C@H](NC(=O)[C@@H](NC(=O)[C@@H](N)C(C)C)C(C)C)C(=O)N[C@@H](CC(N)=O)C(=O)O` (H-VVIN-OH), the inhibition was 71.5%.

Turning to `CC[C@H](C)[C@H](NC(=O)[C@@H](NC(=O)[C@@H](N)C(C)C)C(C)C)C(=O)N[C@@H](CCC(N)=O)C(=O)O` (H-VVIQ-OH), the inhibition came out at 23.4%.

In a further assay the test system is PC-12. The assay can be described thus: Neuroprotective activity against amyloid beta 42-induced toxicity in rat PC-12 cells assessed as cell viability at 10 uM measured after 6 hrs by MTT assay (reference value: 74.05%). The assay is classed as functional. The settings on record: read-out: Activity.
On to `CC(C)[C@H](N)C(=O)N[C@H](C(=O)NC[C@@H]1CCCN1[C@@H](C)C(=O)O)C(C)C`, for which the viability at 10 µM turned out to be 58.8%.

For the compound `CC[C@H](C)[C@H](NC(=O)[C@@H](NC(=O)C[C@H](N)c1ccccc1)C(C)C)C(=O)N[C@@H](C)C(=O)O`, the viability at 10 µM amounted to 58.8%.

Turning to `CC[C@H](C)[C@H](NC(=O)CNC(=O)CN)C(=O)N[C@@H](C)C(=O)O` (H-GGIA-OH), the viability at 10 µM worked out at 66.8%.

Consider `CC[C@H](C)[C@H](NC(=O)[C@@H](NC(=O)[C@@H](N)C(C)C)C(C)C)C(=O)N[C@@H](CCC(=O)O)C(=O)O` (H-VVIE-OH), for which the viability at 10 µM turned out to be 84.9%.

With `CC[C@H](C)[C@H](NC(=O)[C@@H](NC(=O)[C@@H](N)C(C)C)C(C)C)C(=O)N[C@@H](CC(N)=O)C(=O)O` (H-VVIN-OH), the viability at 10 µM was found to be 69.2%.

For `CC[C@H](C)[C@H](NC(=O)[C@@H](NC(=O)[C@@H](N)C(C)C)C(C)C)C(=O)N[C@@H](CCC(N)=O)C(=O)O` (H-VVIQ-OH), the viability at 10 µM is 74.6%.

In another assay the test system is PC-12. Put plainly: Neuroprotective activity against amyloid beta 42-induced toxicity in rat PC-12 cells assessed as cell viability at 2 uM measured after 6 hrs by MTT assay (reference value: 74.05%). It is filed as functional. The settings on record: read-out: Activity.
For the compound `CC(C)[C@H](N)C(=O)N[C@H](C(=O)NC[C@@H]1CCCN1[C@@H](C)C(=O)O)C(C)C`, the viability at 2 µM came to 72%.

For the compound `CC[C@H](C)[C@H](NC(=O)[C@@H](NC(=O)C[C@H](N)c1ccccc1)C(C)C)C(=O)N[C@@H](C)C(=O)O`, the viability at 2 µM is 69.1%.

Consider `CC[C@H](C)[C@H](NC(=O)CNC(=O)CN)C(=O)N[C@@H](C)C(=O)O` (H-GGIA-OH), for which the viability at 2 µM was determined as 100%.

Take `CC[C@H](C)[C@H](NC(=O)[C@@H](NC(=O)[C@@H](N)C(C)C)C(C)C)C(=O)N[C@@H](CCC(=O)O)C(=O)O` (H-VVIE-OH): the viability at 2 µM was 68.9%.

In the case of `CC[C@H](C)[C@H](NC(=O)[C@@H](NC(=O)[C@@H](N)C(C)C)C(C)C)C(=O)N[C@@H](CC(N)=O)C(=O)O` (H-VVIN-OH), the viability at 2 µM was 93.6%.

Regarding `CC[C@H](C)[C@H](NC(=O)[C@@H](NC(=O)[C@@H](N)C(C)C)C(C)C)C(=O)N[C@@H](CCC(N)=O)C(=O)O` (H-VVIQ-OH), the viability at 2 µM came out at 76.9%.
